Our source for the IC50 values is patent publication US20190367520A1, “NEW COMPOUND HAVING FGFR INHIBITORY ACTIVITY AND PREPARATION AND APPLICATION THEREOF” (SHANGHAI INSTITUTE OF MATERIA MEDICA, CHINESE ACADEMY OF …, priority 2016, published 2019).

The target of experiment [1] is FGFR1 kinase domain recombinant protein (Homo sapiens, UniProt P11362). The experiment is described as follows: FGFR1 enzyme activity at molecular level (ELISA, Poly(Glu,Tyr) 4:1 substrate). A general note: An ELISA detects its analyte on a solid surface through an enzyme-linked reagent.
FGFR1 kinase domain recombinant protein, sequence (P11362 478-767 limits assumed): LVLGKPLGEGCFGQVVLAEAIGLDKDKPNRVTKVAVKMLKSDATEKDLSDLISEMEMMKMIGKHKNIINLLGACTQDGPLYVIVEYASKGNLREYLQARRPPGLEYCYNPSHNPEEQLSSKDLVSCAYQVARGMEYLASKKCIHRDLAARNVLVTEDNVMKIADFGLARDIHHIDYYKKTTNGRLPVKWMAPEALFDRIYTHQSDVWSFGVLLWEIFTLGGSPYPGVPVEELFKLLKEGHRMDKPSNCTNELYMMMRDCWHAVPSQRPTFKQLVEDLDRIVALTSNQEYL
Protocol: (§1) The plate was placed at 37° C. for 12-16 hours. The liquid in the well was discarded, the plate was washed, and the panel was washed three times with 200 μL/well of T-PBS (PBS containing 0.1% Tween-20) for 5 minutes each time.
(§2) 50 μL of ATP solution diluted with reaction buffer (50 mM HEPES pH 7.4, 50 mM MgCl2, 0.5 mM MnCl2, 0.2 mM Na3VO4, 1 mM DTT) was added to each well to a final concentration of 5 μM. The compound was diluted to a suitable concentration in DMSO, 1 μL/well or containing the corresponding concentration of DMSO (negative control well), and the FGFR1, FGFR4 kinase domain recombinant protein diluted in 49 μL of reaction buffer was added to initiate the reaction. Two control wells without ATP were required for each experiment. The reaction was carried out for 1 hour at 37° C. on a shaker (100 rpm). The plate was washed three times with T-PBS. Primary antibody, PY99 dilution was added at 100 μL/well and shaken at 37° C. for 0.5 hour. The plate was washed three times with T-PBS. Secondary antibody, horseradish peroxidase-labeled goat anti-mouse IgG dilution was added at 100 μL/well, and shaken at 37° C. for 0.5 hour. […] (Ultrasound was required for the dissolution of OPD, and the chromogenic solution needed to be prepared when used). 2 M H2SO4 was added at 50 μL/well to quench the reaction and a tunable wavelength microplate reader SPECTRA MAX 190 was used at a wavelength of 490 nm.
(§3) The inhibition rate of the sample was obtained by the following formula:
(§4) The IC50 value was obtained by four-parameter regression using the software attached to the microplate reader.
The target of experiment [2] is FGFR4 kinase domain recombinant protein (Homo sapiens, UniProt P22455). As to the kind of experiment: FGFR4 enzyme activity at molecular level (ELISA, Poly(Glu,Tyr) 4:1 substrate).
FGFR4 kinase domain recombinant protein, sequence (P22455 467-755 limits assumed): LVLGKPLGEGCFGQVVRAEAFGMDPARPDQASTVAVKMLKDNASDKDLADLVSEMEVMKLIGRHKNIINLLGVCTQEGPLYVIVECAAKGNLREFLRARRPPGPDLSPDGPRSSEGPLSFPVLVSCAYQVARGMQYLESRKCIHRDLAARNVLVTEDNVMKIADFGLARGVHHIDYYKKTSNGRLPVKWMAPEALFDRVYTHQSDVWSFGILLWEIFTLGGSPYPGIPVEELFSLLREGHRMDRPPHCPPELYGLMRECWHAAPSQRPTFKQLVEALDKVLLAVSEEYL
Protocol: as §1, §2, §3, §4
A further experiment concerns SNU16 cells. The experiment is described as follows: SNU16 cell proliferation (CCK-8, 72 h). In kind it is cell-based. The conditions noted are these: Homo sapiens, SNU-16, read-out: SNU16 (IC50 class). As to the method: The inhibitory effect of the compound on SNU16 cells proliferation was examined by CCK-8 Cell Counting Kit (Dojindo). The specific steps are as follows: SNU16 cells in logarithmic growth phase were inoculated into a 96-well culture plate at a suitable density, 90 μL per well, and cultured overnight, different concentrations of compounds were added for 72 hr, and the solvent control group was set (negative control). After the cells were treated by the compound for 72 h, the effect of the compound on cell proliferation was detected by CCK-8 cell counting kit (Dojindo). 10 μL of CCK-8 reagent was added to each well and placed in a 37° C. incubator for 2-4 hours. The full-wavelength microplate reader SpectraMax 190 was used at a measure wavelength of 450 nm.

The structures appear in SMILES notation.

The IC50 is the point on the concentration scale where inhibition reaches its midpoint. For the molecule `C=CC(=O)N1CCC(n2cc(-c3cc4cc(C)cc(OC)c4s3)c3c(N(C)C)ncnc32)C1` (stereo not drawn) [NO. 63, 1-(3-(4-(dimethylamino)-5-(7-methoxy-5-methylbenzothiophene-2-yl)-7H-pyrrole[2,3-d]pyrimidine-7-yl)pyrrolidine-1-yl)prop-2-en-1-one], the IC50 in experiment [1] and in experiment [2] was greater than 100 nM throughout. Turning to `C=CC(=O)NCCn1nc(-c2cc3cc(C)cc(OC)c3s2)c2c(N)ncnc21` [NO. 50, N-(2-(4-amino-3-(7-methoxy-5-methylbenzothiophen-2-yl)-1H-pyrazole[3,4-d]pyrimidine-1-yl)ethyl)acrylamide], the IC50 in experiment [1] and in experiment [2] was greater than 100 nM each time.

For the molecule `C=CS(=O)(=O)N1CC(n2cc(-c3cc4cc(C)cc(OC)c4s3)c3c(N)ncnc32)C1` [NO. 28, 5-(7-methoxy-5-methylbenzothiophene-2-yl)-7-(1-(vinylsulfonyl)azetidine-3-yl)-7H-pyrrole[2,3-d]pyrimidine-4-amine], the IC50 with SNU16 cells is greater than 100 nM; in experiment [1], less than 10 nM. Regarding `COc1cc(C)cc2cc(-c3nn(C4CCN(C(=O)CCl)C4)c4ncnc(N)c34)sc12` (stereo not drawn) [NO. 84, 1-(3-(4-amino-3-(7-methoxy-5-methylbenzothiophene-2-yl)-1H-pyrazole[3,4-d]pyrimidine-1-yl)pyrrolidine-1-yl)-2-chloroethane-1-one], the IC50 is less than 10 nM in experiment [1] and greater than 100 nM in experiment [2]. In the case of `COc1cc(C)cc2cc(-c3cn(C4CCN(C(=O)OC(C)(C)C)C4)c4ncnc(N)c34)sc12` (stereo not drawn) [NO. 10, tert-butyl 3-(4-amino-5-(7-methoxy-5-methylbenzothiophene-2-yl)-7H-pyrrole[2,3-d]pyrimidine-7-yl) pyrrolidine-1-formate], the IC50 in experiment [1] was 10 to 100 nM; in experiment [2], greater than 100 nM. The like results for `COc1cc(C)cc2cc(-c3cn(C4CCNC4)c4ncnc(N)c34)sc12` (stereo not drawn) [NO. 9, 5-(7-methoxy-5-methylbenzothiophene-2-yl)-7-(pyrrolidine-3-yl)-7H-pyrrole[2,3-d]pyrimidine-4-amine] were, in that order, 10 to 100 nM and greater than 100 nM. The matching figures for `C=CC(=O)Nc1cccc(Cn2nc(-c3cc4cc(C)cc(OC)c4s3)c3c(N)ncnc32)c1` [NO. 78, N-(3-((4-amino-3-(7-methoxy-5-methylbenzothiophene-2-yl)-1H-pyrazole[3,4-d]pyrimidine-1-yl)methyl)phenyl)acrylamide]: less than 10 nM and 10 to 100 nM. The like results for `C=C(CN(CC)CC)C(=O)N1CC[C@H](n2cc(-c3cc4cc(C)cc(OC)c4s3)c3c(N)ncnc32)C1` [NO. 46, (S) 1-(3-(4-amino-5-(7-methoxy-5-methylbenzothiophene-2-yl)-7H-pyrrole[2,3-d]pyrimidine-7-yl)pyrrolidine-1-yl)-2-((diethylamino)methylene)prop-2-en-1-one] were, in that order, 10 to 100 nM and less than 10 nM.

As for `C=C(CN(CC)CC)C(=O)N1CC(n2cc(-c3cc4cc(C)cc(OC)c4s3)c3c(N)ncnc32)C1` [NO. 51, 1-(3-(4-amino-5-(7-methoxy-5-methylbenzothiophene-2-yl)-7H-pyrrole[2,3-d]pyrimidine-7-yl)azetidine-1-yl)-2-((diethylamino)methylene)prop-2-en-1-one], the half-inhibitory concentration (IC50) in experiment [1] and in experiment [2] was less than 10 nM each time. As for `COc1cc(C)cc2cc(-c3cn(C4CN(C(=O)/C=C/CN(C)C)C4)c4ncnc(N)c34)sc12` [NO. 19, (E)-1-(3-(4-amino-5-(7-methoxy-5-methylbenzothiophene-2-yl)-7H-pyrrole[2,3-d]pyrimidine-7-yl)azetidin-1-yl)-4-(dimethylamino)but-2-en-1-one], the IC50 is less than 10 nM in experiment [1] and 10 to 100 nM in experiment [2]. The like results for `COc1cc(C)cc2cc(-c3cn(C4CCN(C(=O)/C=C/CN5CCC(O)CC5)C4)c4ncnc(N)c34)sc12` (stereo not drawn) [NO. 77, (E)-1-(3-(4-amino-5-(7-methoxy-5-methylbenzothiophene-2-yl)-7H-pyrrole[2,3-d]pyrimidine-7-yl)pyrrolidine-1-yl)-4-(4-hydroxypiperidine-1-yl)but-2-en-1-one] were, in that order, less than 10 nM and 10 to 100 nM. The matching figures for `COc1cc(C)cc2cc(-c3cn(C4CCN(C(=O)/C=C/CN(C)C(C)C)C4)c4ncnc(N)c34)sc12` (stereo not drawn) [NO. 6, (E)1-(3-(4-amino-5-(7-methoxy-5-methylbenzothiophene-2-yl)-7H-pyrrole[2,3-d]pyrimidine-7-yl)pyrrolidine-1-yl)-4-(isopropyl(methyl)amino)but-2-en-1-one]: less than 10 nM and 10 to 100 nM. The like results for `COc1cc(C)cc2cc(-c3cn(C4CCN(C(=O)C(C#N)=CC5CC5)C4)c4ncnc(N)c34)sc12` (stereo not drawn) [NO. 25, 2-(3-(4-amino-5-(7-methoxy-5-methylbenzothiophene-2-yl)-7H-pyrrole[2,3-d]pyrimidine-7-yl)pyrrolidine-1-carbonyl)-3-cyclopropyl acrylonitrile] were, in that order, less than 10 nM and less than 10 nM.

Consider `C=CC(=O)N1CCC(n2cc(-c3ccncc3)c3c(N)ncnc32)C1` (stereo not drawn) [NO. 82, 1-(3-(4-amino-5-(pyridine-4-yl)-7H-pyrrole[2,3-d]pyrimidine-7-yl)pyrrolidine-1-yl)prop-2-en-1-one], for which the IC50 in experiment [1] and in experiment [2] was greater than 100 nM each time.

Turning to `C=C(CN1CCOCC1)C(=O)N1CC[C@H](n2cc(-c3cc4cc(C)cc(OC)c4s3)c3c(N)ncnc32)C1` [NO. 45, (S) 1-(3-(4-amino-5-(7-methoxy-5-methylbenzothiophane-2-yl)-7H-pyrrole[2,3-d]pyrimidine-7-yl)pyrrolidine-1-yl)-2-(morpholinemethylene)prop-2-en-1-one], the IC50 was 10 to 100 nM in experiment [1] and less than 10 nM in experiment [2]. As for `COc1cc(C)cc2cc(-c3cn(C4CN(C(=O)/C=C/CN5CCCC5)C4)c4ncnc(N)c34)sc12` [NO. 17], the IC50 is less than 10 nM in experiment [1] and 10 to 100 nM in experiment [2]. The matching figures for `COc1cc(C)cc2cc(-c3cn(CCN4CCOCC4)c4ncnc(N)c34)sc12` [NO. 76, 5-(7-methoxy-5-methylbenzothiophene-2-yl)-7-(2-morpholineethyl)-7H-pyrrole[2,3-d]p yrimidine-4-amine]: 10 to 100 nM and greater than 100 nM. The matching figures for `COc1cc(C)cc2cc(-c3cn(C4CCN(C(=O)/C=C/CN5CCCC5)C4)c4ncnc(N)c34)sc12` (stereo not drawn) [NO. 7, (E)1-(3-(4-amino-5-(7-methoxy-5-methylbenzothiophene-2-yl)-7H-pyrrole[2,3-d]pyrimidine-7-yl)pyrrolidine-1-yl)-4-(pyrrolidine-1-yl)but-2-en-1-one]: less than 10 nM and 10 to 100 nM. The like results for `C=CC(=O)N1CCC(n2cc(-c3ccoc3)c3c(N)ncnc32)C1` (stereo not drawn) [NO. 83, 1-(3-(4-amino-5-(furan-3-yl)-7H-pyrrole [2,3-d]pyrimidine-7-yl)pyrrolidine-1-yl)prop-2-en-1-one] were, in that order, greater than 100 nM and greater than 100 nM.

In the case of `C=CC(=O)N1CC(n2cc(-c3cc4c(OC)ccc(OC)c4s3)c3c(N)ncnc32)C1` [NO. 41, 1-(3-(4-amino-5-(4,7-dimethoxybenzothiophen-2-yl)-7H-pyrrole[2,3-d]pyrimidine-7-yl)azetidine-1-yl)prop-2-en-1-one], the half-maximal inhibitory concentration (IC50) with SNU16 cells fell in the range of 10 to 100 nM.
